Drawing on ChEMBL document CHEMBL1150568, “Briaexcavatolides K-N, new briarane diterpenes from the gorgonian Briareum excavatum” (2001), this text covers Activity and EC50 for five compounds.

Values after ≈ are worked out from the molar mass of the structure shown. Active and inactive are the calls of the source. The calls are words filed in the database; no cut-off is given here.

The subject of one assay is P388. The assay can be described thus: Cytotoxicity against mouse P388 cells by tetrazolium-based colorimetric assay. In kind it is functional. Conditions: for EC50: read-out: ED50 (the source's name).
In the next assay the test system is HT-29. As to the kind of experiment: Cytotoxicity against human HT-29 cells by tetrazolium-based colorimetric assay. In kind it is functional.
For another assay, the system named is A549. As to the kind of experiment: Cytotoxicity against human A549 cells by tetrazolium-based colorimetric assay. In kind it is functional, cell-based.

On to `CC(=O)O[C@H]1C/C(C)=C\[C@@H]2OC(=O)[C@](C)(O)[C@]2(O)[C@H](OC(C)=O)[C@H]2[C@@H](C)[C@@H](O)C[C@H](OC(C)=O)[C@]2(C)[C@H]1OC(C)=O`, for which the result with P388, in the assay with HT-29 and in the assay with A549 was inactive.
Take `CC(=O)O[C@H]1CC/C(CO)=C\[C@@H]2OC(=O)[C@@]3(C)O[C@]23[C@H](O)[C@H]2[C@@H](C)[C@H](OC(C)=O)C=C[C@@]21C` (relative stereo): the EC50 is 0.4 µg/mL (≈ 0.861 µM) in the assay on P388 and 1.1 µg/mL (≈ 2.37 µM) with HT-29 (read-out: ED50 (the source's name)).
Consider `CC(=O)O[C@@H]1[C@H](C)[C@@H]2[C@@H](OC(C)=O)[C@@]3(O)[C@H](/C=C(CO)\C=C/[C@H](O)[C@@]2(C)[C@H]2O[C@@H]12)OC(=O)[C@@H]3C`, for which the result in the assay with P388, in the assay with HT-29 and in the assay with A549 was inactive.
Regarding `CCCC(=O)O[C@H]1C/C(C)=C\[C@@H]2OC(=O)[C@](C)(O)[C@]2(O)[C@H](OC(C)=O)[C@H]2[C@@H](C)[C@@H](O)C[C@H](OC(C)=O)[C@]2(C)[C@H]1OC(C)=O` [BRIAEXCAVATOLIDE L], in the assay on P388, the EC50 is 0.5 µg/mL (≈ 0.816 µM).
On to `CC(=O)O[C@@H]1[C@H](C)[C@@H]2[C@@H](OC(C)=O)[C@@]3(O)[C@H](/C=C(CCl)\C=C/[C@H](O)[C@@]2(C)[C@H]2O[C@@H]12)OC(=O)[C@@H]3C`, for which the outcome with P388, with HT-29 and in the assay on A549 was inactive.
